Key:
[1] = tested on: WD patients; settings: once daily dosing in WD patients; cited from earlier work
[2] = Crystallinity by X-ray powder diffraction (XRPD); type: physicochemical
Protocol: Crystallinity was analyzed by X-ray powder diffraction (XRPD) using a Cu-anode (45 kV/40 mA), a Kα-1 monochromator and silicon-based position-sensitive 1D detector (Malvern Panalytical, X'Celerator™). The 2-theta range was 2-35° using a scan speed of 0.02°/s and a step size of 0.017°. Slow spinning sample holders were used. […] Each sample was smeared out using a Teflon bar, producing a flat powdered surface on zero background wafers of silicon (Si). The measurements were performed using a programmable incident divergence slit.
The crystallinity was evaluated using Panalytical HighScore Plus™ software (The HighScore suite; T. Degen, M. Sadki, E. Bron, U. König, G. Nénert; Powder Diffraction, Volume 29, Supplement S2, December 2014, pp S13-S18). This method is based on the following steps: 1) Calculation of the net area of the signals from the crystalline part of the sample. This area is defined as “AREAcryst.” 2) Calculation of the net total area, that is, area from the amorphous “humps” plus the net peak area from step 1. This area is defined as “AREAtotal.” In the calculation of above areas, an automatic correction of the background is made by using data collected for an empty sample holder. 3) The percent crystallinity of the sample is calculated as: (AREAcryst/AREAtotal)*100.
XRPD crystallinity results for each batch are reported Table 1.

[3] = Particle size distribution (PSD) by LALLS; type: physicochemical; settings: for Dx (10)/μm: 10th percentile of particle size, paraffin oil dispersion; for Dx (50)/μm: 50th percentile of particle size; for Dx (90)/μm: 90th percentile of particle size; for >100 μm (%): percentage of particles greater than 100 μm; for <2 μm (%): percentage of particles less than 2 μm
Text: As used herein, the term “Dx(10)/μm” refers to the 10th percentile of particle size (D10) measured in micrometers (μm). As used herein, the terms “Dx(50)/μm” or “median particle size” refer to the 50th percentile particle size (D50). As used herein, the term “Dx(90)/μm” refers to the 90th percentile of particle size (D90).
As used herein, the term “<2 μm (%)” refers to the percentage (%) of particles that are less than 2 μm. As used herein, the term “>100 μm (%)” refers to the percentage (%) of particles that are greater than 100 μm. As used herein, the percentage of particles refers to the percentage based on the population, or number, of particles.
The sample dispersion medium was paraffin oil. […] This was repeated until a stable reading was obtained.
The PSD measurements were done using the following settings: background measurement time, 20 seconds(s); sample measurement time, 20 s; dispersant refractive index, 1.45; particle refractive index, N/A (Fraunhofer), absorption, N/A (Fraunhofer); stirrer speed, 2500 rpm; analysis model: general purpose.

[4] = Specific surface area (SSA) by BET; type: physicochemical; settings: N2 adsorption
Protocol: As used herein, the ten “SSA (m^2/g)” refers to specific surface area (SSA) measured in square meters (m^2) per gram (g). SSA was measured by BET according to the method described in Example 4.
Specific Surface Area (SSA) was analyzed by BET on a surface area analyzer (Gemini 2375™ from Micromeritics Instrument Corp.). […] Each sample was filled into a glass tube and “degassed” at 30° C. for 1 h under continuous N2 (g) flow in order to remove all loosely bound molecules on the external surface and from potential channels in the material. Simultaneously, the saturation pressure for the liquid nitrogen used was determined. After weighing the degassed samples, the degassed samples were inserted into the measuring position at −196° C. (boiling point for liquid nitrogen), evacuated and then exposed to a range of partial pressures basically covering the whole range from almost zero to close to 1 under adsorption mode. The lower pressures were used for SSA determination. Higher pressures were used for potential micro pore determination. In order to ascribe the right amount of nitrogen to the substances, the free volume in the tubes was measured with helium gas prior to nitrogen adsorption. The appropriate thickness values for the adsorbed layer (above the point where no absorption took place in micro pores anymore) was determined from a t-plot and subsequently used to correct the calculation by separating the adsorbed nitrogen molecules into either absorbed into potential pore like structures (the “micro pore volume”) or adsorbed onto actual external surface.

[5] = Stability of crystalline particles after forced degradation at 40° C. and 75% relative humidity (HPLC impurities); type: physicochemical
Protocol: Stability analysis was performed on crystalline particles after forced degradation at 40° C. and 75% relative humidity over 3 days.

[6] = Day 3, 40° C. / 75% RH, listed as A-2
[7] = Day 3, 40° C. / 75% RH, listed as B-2
[8] = Day 3, 40° C. / 75% RH, listed as B-3
[9] = Day 3, 40° C. / 75% RH, listed as B-4

## Bis-choline tetrathiomolybdate [BC-TTM]
[1]
  Cu control and improvement of hepatic function: demonstrated to provide Cu control and improvement of hepatic function

## bis-choline tetrathiomolybdate [Batch A-2]
[2]; AREAcryst/AREAtotal*100, listed as A-2
  Estimated Crystallinity (%): 86%
[3]; listed as A-2
  Dx (10)/μm: 25.5 μm
  Dx (50)/μm: 86.6 μm
  Dx (90)/μm: 442.0 μm
  >100 μm (%): 46.8%
  <2 μm (%): 0.0%
[4]; listed as A-2
  SSA (m^2/g): 0.26 m^2/g
[5]; [6]
  Mo2S6O2 dimer (area %): 0.09 area %
  TM2 (area %): 2.38 area %
  TM3 (area %): 2.78 area %
  Total impurities (area %): 5.54 area %
[5]; Initial, listed as A-2
  TM2 (area %): 0.29 area %
  TM3 (area %): 2.04 area %
  Total impurities (area %): 2.34 area %

## bis-choline tetrathiomolybdate [Batch B-2]
[2]; AREAcryst/AREAtotal*100, listed as B-2
  Estimated Crystallinity (%): 93%
[3]; listed as B-2
  Dx (10)/μm: 5.4 μm
  Dx (50)/μm: 20.5 μm
  Dx (90)/μm: 59.7 μm
  >100 μm (%): 0.1%
  <2 μm (%): 4.3%
[4]; listed as B-2
  SSA (m^2/g): 0.65 m^2/g
[5]; Day 1, 40° C. / 75% RH, listed as B-2
  Mo2S6O2 dimer (area %): 0.07 area %
[5]; Day 2, 40° C. / 75% RH, listed as B-2
  Mo2S6O2 dimer (area %): 0.13 area %
[5]; [7]
  Mo2S6O2 dimer (area %): 0.19 area %
  TM2 (area %): 0.13 area %
  TM3 (area %): 0.54 area %
  Total impurities (area %): 0.97 area %
[5]; Initial, listed as B-2
  TM2 (area %): 0.01 area %
  TM3 (area %): 0.52 area %
  Total impurities (area %): 0.56 area %

## bis-choline tetrathiomolybdate [Batch B-3]
[2]; AREAcryst/AREAtotal*100, listed as B-3
  Estimated Crystallinity (%): 95%
[3]; listed as B-3
  Dx (10)/μm: 10.5 μm
  Dx (50)/μm: 30.0 μm
  Dx (90)/μm: 54.9 μm
  >100 μm (%): 0.0%
  <2 μm (%): 2.6%
[4]; listed as B-3
  SSA (m^2/g): 0.38 m^2/g
[5]; Day 1, 40° C. / 75% RH, listed as B-3
  Mo2S6O2 dimer (area %): <0.05 area %
[5]; Day 2, 40° C. / 75% RH, listed as B-3
  Mo2S6O2 dimer (area %): 0.07 area %
[5]; [8]
  Mo2S6O2 dimer (area %): 0.11 area %
  TM2 (area %): 0.10 area %
  TM3 (area %): 0.43 area %
  Total impurities (area %): 0.68 area %
[5]; Initial, listed as B-3
  TM2 (area %): 0.01 area %
  TM3 (area %): 0.42 area %
  Total impurities (area %): 0.44 area %

## bis-choline tetrathiomolybdate [Batch B-4]
[2]; AREAcryst/AREAtotal*100, listed as B-4
  Estimated Crystallinity (%): 93%
[3]; listed as B-4
  Dx (10)/μm: 3.6 μm
  Dx (50)/μm: 12.7 μm
  Dx (90)/μm: 47.6 μm
  >100 μm (%): 0.0%
  <2 μm (%): 6.6%
[4]; listed as B-4
  SSA (m^2/g): 1.16 m^2/g
[5]; Day 1, 40° C. / 75% RH, listed as B-4
  Mo2S6O2 dimer (area %): 0.06 area %
[5]; Day 2, 40° C. / 75% RH, listed as B-4
  Mo2S6O2 dimer (area %): 0.23 area %
[5]; [9]
  Mo2S6O2 dimer (area %): 0.38 area %
  TM2 (area %): 0.19 area %
  TM3 (area %): 0.23 area %
  Total impurities (area %): 1.01 area %
[5]; Initial
  Mo2S6O2 dimer (area %): <0.05 area %
[5]; Initial, listed as B-4
  TM2 (area %): 0.01 area %
  TM3 (area %): 0.14 area %
  Total impurities (area %): 0.20 area %

Source: patent US11739051B2 (ALEXION PHARMA INTERNATIONAL OPERATIONS UNLIMITED COMPANY, priority 2018, dated 2023)
